pEC50: −log10 of the molar value. Where two headings read alike, the source gives them in different places.
Legend:
EGFR (ErbB1) = target: T1, EGFR (ErbB1) (Homo sapiens, UniProt P00533); test: In vitro kinase assay (Z'-LYTE, Invitrogen); format: biochemical; details: compound at 100 nM, ATP Km apparent, read-out: % of inhibition of the kinase compared to the control
T1 construct: purchased Invitrogen
Procedure, shortened: (§1)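 Single-concentration screen (100 nM) run by Z′-LYTE on human recombinant kinase, ATP at apparent Km, 50 mM HEPES pH 7.5 buffer, 1% DMSO final.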

EGFR (ErbB1) T790M L858R = target: T2, EGFR (ErbB1) T790M L858R (Homo sapiens, UniProt P00533, L858R/T790M); test: In vitro kinase assay (Z'-LYTE, Invitrogen); format: biochemical; details: compound at 100 nM, ATP Km apparent, read-out: % of inhibition of the kinase compared to the control
T2 construct: purchased Invitrogen
Procedure, shortened: as §1

BRAF = target: T3, BRAF (Homo sapiens, UniProt P15056); test: In vitro kinase assay (Z'-LYTE, Invitrogen); format: biochemical; details: compound at 100 nM, ATP Km apparent, read-out: % of inhibition of the kinase compared to the control
T3 construct: purchased Invitrogen
Procedure, shortened: as §1

PDGFRA (PDGFR alpha) = target: T4, PDGFRA (PDGFR alpha) (Homo sapiens, UniProt P16234); test: In vitro kinase assay (Z'-LYTE, Invitrogen); format: biochemical; details: compound at 100 nM, ATP Km apparent, read-out: % of inhibition of the kinase compared to the control
T4 construct: purchased Invitrogen
Procedure, shortened: as §1

KDR (VEGFR2) = target: T5, KDR (VEGFR2) (Homo sapiens, UniProt P35968); test: In vitro kinase assay (Z'-LYTE, Invitrogen); format: biochemical; details: compound at 100 nM, ATP Km apparent, read-out: % of inhibition of the kinase compared to the control
T5 construct: purchased Invitrogen
Procedure, shortened: as §1

SRC = target: T6, SRC (Homo sapiens, UniProt P12931); test: In vitro kinase assay (Z'-LYTE, Invitrogen); format: biochemical; details: compound at 100 nM, ATP Km apparent, read-out: % of inhibition of the kinase compared to the control
T6 construct: purchased Invitrogen
Procedure, shortened: as §1

FGFR2 = target: T7, FGFR2 (Homo sapiens, UniProt P21802); test: In vitro kinase assay (Z'-LYTE, Invitrogen); format: biochemical; details: compound at 100 nM, ATP Km apparent, read-out: % of inhibition of the kinase compared to the control
T7 construct: purchased Invitrogen
Procedure, shortened: as §1

HuH6 Clone 5 cell line = test: In vitro cell proliferation assay (MTT); format: cell-based; details: HUH-6-clone5, HuH6 Clone 5, 72 hr, EC50 ≧ 1 μM, read-out: EC50, anti-proliferative activity
Procedure, shortened: (§2)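 MTT read-out after 72 hr exposure to escalating compound, 10 nM to 3 μM, in duplicate wells. Seeding 5×10^3 cells/well for tumour lines and 1×10^4 for HRMEC; EC50 derived by sigmoidal curve fitting, DMSO wells as 0% and 1% SDS wells as 100%.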

HuH7 cell line = test: In vitro cell proliferation assay (MTT); format: cell-based; details: Homo sapiens, Huh-7, HuH7, 72 hr, read-out: EC50, anti-proliferative activity
Procedure, shortened: as §2

HuCCT1 cell line = test: In vitro cell proliferation assay (MTT); format: cell-based; details: Homo sapiens, HuCCT-1, HuCCT1, 72 hr, read-out: EC50, anti-proliferative activity
Procedure, shortened: as §2

HepG2 cell line = test: In vitro cell proliferation assay (MTT); format: cell-based; details: Homo sapiens, HepG2, 72 hr, EC50 ≧ 1 μM, read-out: EC50, anti-proliferative activity
Procedure, shortened: as §2

HUVEC cells = test: In vitro cell proliferation assay (MTT); format: cell-based; details: Homo sapiens, 72 hr, read-out: EC50, anti-proliferative activity
Procedure, shortened: as §2

HT29 cell line = test: In vitro cell proliferation assay (MTT); format: cell-based; details: Homo sapiens, HT-29, HT29, 72 hr, EC50 ≧ 1 μM, read-out: EC50, anti-proliferative activity
Procedure, shortened: as §2

A549 cell line = test: In vitro cell proliferation assay (MTT); format: cell-based; details: Homo sapiens, A549, 72 h, EC50 ≧ 1 μM, read-out: EC50, anti-proliferative activity
Procedure, shortened: as §2

H1975 cell line = test: In vitro cell proliferation assay (MTT); format: cell-based; details: Homo sapiens, NCI-H1975, H1975, 72 hr, read-out: EC50, anti-proliferative activity
Procedure, shortened: as §2

MDA-MB-231 cell line = test: In vitro cell proliferation assay (MTT); format: cell-based; details: Homo sapiens, MDA-MB-231, 72 hr, EC50 ≧ 1 μM, read-out: EC50, anti-proliferative activity
Procedure, shortened: as §2

T7 sequence (P21802 22-821): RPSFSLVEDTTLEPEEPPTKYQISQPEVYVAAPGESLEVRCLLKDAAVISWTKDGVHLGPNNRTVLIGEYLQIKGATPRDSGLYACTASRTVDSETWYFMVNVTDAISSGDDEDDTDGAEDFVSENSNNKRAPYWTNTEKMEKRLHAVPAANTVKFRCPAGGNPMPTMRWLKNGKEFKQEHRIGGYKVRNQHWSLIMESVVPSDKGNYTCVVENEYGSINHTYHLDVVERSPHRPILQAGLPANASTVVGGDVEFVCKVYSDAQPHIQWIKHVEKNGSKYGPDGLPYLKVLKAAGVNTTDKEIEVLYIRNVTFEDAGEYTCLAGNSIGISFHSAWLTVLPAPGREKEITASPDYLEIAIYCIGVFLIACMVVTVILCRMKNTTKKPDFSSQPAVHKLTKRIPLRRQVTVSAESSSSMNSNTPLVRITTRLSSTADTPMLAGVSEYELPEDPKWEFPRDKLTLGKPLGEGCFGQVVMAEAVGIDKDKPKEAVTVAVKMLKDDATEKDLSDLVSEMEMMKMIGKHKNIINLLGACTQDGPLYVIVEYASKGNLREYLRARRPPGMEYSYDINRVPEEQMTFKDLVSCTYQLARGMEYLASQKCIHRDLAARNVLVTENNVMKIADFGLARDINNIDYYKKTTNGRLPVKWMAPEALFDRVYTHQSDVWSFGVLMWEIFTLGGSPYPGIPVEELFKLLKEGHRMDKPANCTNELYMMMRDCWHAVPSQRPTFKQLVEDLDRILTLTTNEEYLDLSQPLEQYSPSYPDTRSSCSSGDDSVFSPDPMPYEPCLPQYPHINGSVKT
T4 sequence (P16234 24-1089): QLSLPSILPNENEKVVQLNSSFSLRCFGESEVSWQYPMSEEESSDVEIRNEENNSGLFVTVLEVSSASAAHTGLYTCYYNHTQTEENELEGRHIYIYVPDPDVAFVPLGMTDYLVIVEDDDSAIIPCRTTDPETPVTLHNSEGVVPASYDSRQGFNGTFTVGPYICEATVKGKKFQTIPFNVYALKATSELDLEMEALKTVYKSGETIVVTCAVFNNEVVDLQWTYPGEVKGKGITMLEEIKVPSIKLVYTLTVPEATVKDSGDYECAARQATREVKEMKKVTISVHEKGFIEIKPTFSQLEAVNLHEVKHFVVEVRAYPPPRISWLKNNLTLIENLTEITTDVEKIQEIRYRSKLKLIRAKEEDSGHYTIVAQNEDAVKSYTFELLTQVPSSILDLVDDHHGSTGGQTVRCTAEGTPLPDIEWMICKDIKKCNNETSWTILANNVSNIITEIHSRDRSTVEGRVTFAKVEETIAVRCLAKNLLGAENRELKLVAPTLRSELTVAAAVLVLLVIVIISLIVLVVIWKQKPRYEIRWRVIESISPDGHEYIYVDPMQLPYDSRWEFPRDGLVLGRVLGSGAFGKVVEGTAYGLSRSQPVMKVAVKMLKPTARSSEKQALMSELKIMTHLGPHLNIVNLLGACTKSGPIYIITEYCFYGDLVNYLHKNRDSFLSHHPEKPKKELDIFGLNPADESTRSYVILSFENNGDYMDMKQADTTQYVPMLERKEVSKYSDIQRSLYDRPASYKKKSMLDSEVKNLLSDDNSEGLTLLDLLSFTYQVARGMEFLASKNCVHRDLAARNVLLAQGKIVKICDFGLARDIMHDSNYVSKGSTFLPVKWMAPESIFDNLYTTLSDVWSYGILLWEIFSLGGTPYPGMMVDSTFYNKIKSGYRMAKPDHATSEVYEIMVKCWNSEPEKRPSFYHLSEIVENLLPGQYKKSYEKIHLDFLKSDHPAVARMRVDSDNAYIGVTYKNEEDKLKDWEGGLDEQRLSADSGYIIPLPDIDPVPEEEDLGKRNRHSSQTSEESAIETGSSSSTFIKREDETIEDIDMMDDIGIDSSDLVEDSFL
T2 sequence (P00533 25-1210 T790M/L858R): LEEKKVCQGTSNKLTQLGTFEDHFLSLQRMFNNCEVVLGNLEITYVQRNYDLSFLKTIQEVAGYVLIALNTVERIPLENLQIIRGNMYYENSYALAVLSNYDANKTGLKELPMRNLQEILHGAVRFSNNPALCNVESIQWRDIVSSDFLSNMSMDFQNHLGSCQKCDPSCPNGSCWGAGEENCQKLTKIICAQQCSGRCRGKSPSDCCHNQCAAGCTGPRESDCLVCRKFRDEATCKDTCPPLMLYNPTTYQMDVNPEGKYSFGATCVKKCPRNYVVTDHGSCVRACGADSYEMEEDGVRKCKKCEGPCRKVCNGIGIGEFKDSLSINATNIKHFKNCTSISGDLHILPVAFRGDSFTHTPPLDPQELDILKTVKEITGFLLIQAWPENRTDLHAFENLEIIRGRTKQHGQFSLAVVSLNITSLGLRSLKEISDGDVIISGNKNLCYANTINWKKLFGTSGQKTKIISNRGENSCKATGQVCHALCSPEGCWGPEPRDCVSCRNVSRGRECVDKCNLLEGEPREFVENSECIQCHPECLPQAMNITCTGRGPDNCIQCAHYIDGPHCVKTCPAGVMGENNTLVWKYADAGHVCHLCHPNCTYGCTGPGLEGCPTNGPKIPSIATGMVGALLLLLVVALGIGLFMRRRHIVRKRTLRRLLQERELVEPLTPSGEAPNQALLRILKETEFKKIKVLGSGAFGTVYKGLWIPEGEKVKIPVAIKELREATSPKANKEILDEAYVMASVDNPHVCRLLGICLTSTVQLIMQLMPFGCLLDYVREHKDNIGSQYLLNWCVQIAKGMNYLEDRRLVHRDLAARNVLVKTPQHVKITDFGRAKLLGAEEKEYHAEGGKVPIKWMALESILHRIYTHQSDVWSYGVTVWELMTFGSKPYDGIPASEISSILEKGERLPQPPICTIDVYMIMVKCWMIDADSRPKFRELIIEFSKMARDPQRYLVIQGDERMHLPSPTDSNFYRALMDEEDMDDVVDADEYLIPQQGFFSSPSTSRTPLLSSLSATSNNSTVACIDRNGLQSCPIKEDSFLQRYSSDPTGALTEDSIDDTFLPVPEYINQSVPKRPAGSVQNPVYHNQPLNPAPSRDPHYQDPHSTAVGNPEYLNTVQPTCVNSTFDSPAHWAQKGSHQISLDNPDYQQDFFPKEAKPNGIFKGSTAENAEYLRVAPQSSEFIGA
T3 sequence (P15056 whole entry): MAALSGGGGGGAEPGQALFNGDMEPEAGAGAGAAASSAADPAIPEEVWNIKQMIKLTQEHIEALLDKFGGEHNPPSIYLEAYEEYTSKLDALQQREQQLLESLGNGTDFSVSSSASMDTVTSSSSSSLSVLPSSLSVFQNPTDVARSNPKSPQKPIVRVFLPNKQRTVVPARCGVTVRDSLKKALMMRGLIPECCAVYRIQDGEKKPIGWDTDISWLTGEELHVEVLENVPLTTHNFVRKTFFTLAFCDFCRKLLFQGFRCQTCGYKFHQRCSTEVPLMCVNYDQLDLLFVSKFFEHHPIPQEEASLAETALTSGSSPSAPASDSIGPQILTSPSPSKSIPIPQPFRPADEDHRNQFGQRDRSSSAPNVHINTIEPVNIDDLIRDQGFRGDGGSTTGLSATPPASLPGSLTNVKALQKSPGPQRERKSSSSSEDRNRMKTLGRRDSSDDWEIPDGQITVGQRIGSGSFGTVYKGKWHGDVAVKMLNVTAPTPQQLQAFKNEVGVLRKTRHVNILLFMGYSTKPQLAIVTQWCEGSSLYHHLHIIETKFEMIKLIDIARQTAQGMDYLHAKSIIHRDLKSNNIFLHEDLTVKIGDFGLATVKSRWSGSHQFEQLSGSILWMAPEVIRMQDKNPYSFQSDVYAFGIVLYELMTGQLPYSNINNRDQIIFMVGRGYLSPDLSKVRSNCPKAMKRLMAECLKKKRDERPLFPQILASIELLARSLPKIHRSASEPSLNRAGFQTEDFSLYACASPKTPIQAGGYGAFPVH
T6 sequence (P12931 whole entry): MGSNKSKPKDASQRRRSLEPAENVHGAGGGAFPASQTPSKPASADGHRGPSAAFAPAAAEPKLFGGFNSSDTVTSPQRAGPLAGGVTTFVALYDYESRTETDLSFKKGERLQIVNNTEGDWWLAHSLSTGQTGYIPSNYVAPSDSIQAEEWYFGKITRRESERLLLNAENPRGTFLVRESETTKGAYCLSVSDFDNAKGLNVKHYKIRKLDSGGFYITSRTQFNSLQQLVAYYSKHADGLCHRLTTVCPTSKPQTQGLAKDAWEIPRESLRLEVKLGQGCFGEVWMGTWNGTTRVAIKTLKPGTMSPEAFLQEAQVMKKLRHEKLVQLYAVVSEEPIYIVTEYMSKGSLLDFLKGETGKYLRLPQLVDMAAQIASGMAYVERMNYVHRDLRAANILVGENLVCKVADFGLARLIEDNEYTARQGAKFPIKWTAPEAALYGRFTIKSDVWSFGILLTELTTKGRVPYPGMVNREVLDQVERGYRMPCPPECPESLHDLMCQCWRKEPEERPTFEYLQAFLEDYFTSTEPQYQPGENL

| inhibition at 0.1 µM (EGFR (ErbB1)) | inhibition at 0.1 µM (EGFR (ErbB1) T790M L858R) | inhibition at 0.1 µM (BRAF) | inhibition at 0.1 µM (PDGFRA (PDGFR alpha)) | inhibition at 0.1 µM (KDR (VEGFR2)) | inhibition at 0.1 µM (SRC) | inhibition at 0.1 µM (FGFR2) | pEC50 (HuH6 Clone 5 cell line) | pEC50 (HuH7 cell line; 100 nM < EC50 < 1 μM) | pEC50 (HepG2 cell line) | pEC50 (HT29 cell line) | pEC50 (A549 cell line) | pEC50 (H1975 cell line; 100 nM < EC50 < 1 μM) | pEC50 (HuH7 cell line; EC50 ≧ 1 μM) | pEC50 (H1975 cell line; EC50 ≧ 1 μM) | pEC50 (MDA-MB-231 cell line) | SMILES | pEC50 (HuCCT1 cell line; EC50 ≧ 1 μM) | pEC50 (HUVEC cells; 100 nM < EC50 < 1 μM) | pEC50 (HuCCT1 cell line; 100 nM < EC50 < 1 μM) | pEC50 (HUVEC cells; EC50 ≧ 1 μM) |
| --- | --- | --- | --- | --- | --- | --- | --- | --- | --- | --- | --- | --- | --- | --- | --- | --- | --- | --- | --- | --- |
| ≥ 50% |  | ≥ 50% | ≥ 50% | ≥ 50% | ≥ 50% | < 50% | ≤ 6.00 | 6.00 to 7.00 | ≤ 6.00 |  |  |  |  |  |  | CC(=O)c1cc2cc(CCc3cc(NC(=O)c4ccc(CN5CCN(C)CC5)cc4)ccc3C)cnc2[nH]1 [OR0799, N-{3-[2-(2-Acetyl-1H-pyrrolo[2,3-b]pyridin-5-yl)-ethyl]-4-methyl-phenyl}-4-(4-methyl-piperazin-1-ylmethyl)-benzamide] |  | 6.00 to 7.00 | 6.00 to 7.00 |  |
|  |  |  |  |  |  |  | 5.52 to 6.00 |  | 5.52 to 6.00 |  |  |  | 5.52 to 6.00 |  |  | CNC(=O)c1cc(Oc2ccc(NC(=O)Nc3ccc(Cl)c(C(F)(F)F)c3)cc2)ccn1 [Sorafenib, reference compound] | 5.52 to 6.00 | 6.00 to 7.00 |  |  |
| ≥ 50% |  | < 50% | ≥ 50% | ≥ 50% | ≥ 50% | < 50% | ≤ 6.00 |  | ≤ 6.00 |  |  |  | ≤ 6.00 |  | ≤ 6.00 | COC(=O)c1cc2cc(C=Cc3cc(NC(=O)c4ccc(CN5CCC(N(C)C)C5)c(C(F)(F)F)c4)ccc3C)cnc2[nH]1 (stereo not drawn) [OR0778, 5-(2-{5-[4-(3-Dimethylamino-pyrrolidin-1-ylmethyl)-3-trifluoromethyl-benzoylamino]-2-methyl-phenyl}-vinyl)-1H-pyrrolo[2,3-b]pyridine-2-carboxylic acid methyl ester] | ≤ 6.00 |  |  | ≤ 6.00 |
| < 50% |  | ≥ 50% | ≥ 50% | ≥ 50% | ≥ 50% | < 50% | ≤ 6.00 |  | ≤ 6.00 |  |  |  | ≤ 6.00 |  |  | CC(=O)c1cc2cc(CCc3cc(NC(=O)c4cncc(C(F)(F)F)c4)ccc3C)cnc2[nH]1 [OR0800, N-{3-[2-(2-Acetyl-1H-pyrrolo[2,3-b]pyridin-5-yl)-ethyl]-4-methyl-phenyl}-5-trifluoromethyl-nicotinamide] | ≤ 6.00 | 6.00 to 7.00 |  |  |
| ≥ 50% |  | < 50% | ≥ 50% | ≥ 50% | ≥ 50% | < 50% |  |  | ≤ 6.00 |  |  |  | ≤ 6.00 |  |  | COC(=O)c1cc2cc(CCc3cc(NC(=O)c4ccc(CN5CCN(C)CC5)cc4)ccc3C)cnc2[nH]1 [OR0834, 5-(2-{2-Methyl-5-[4-(4-methyl-piperazin-1-ylmethyl)-benzoylamino]-phenyl}-ethyl)-1H-pyrrolo[2,3-b]pyridine-2-carboxylic acid methyl ester] |  |  |  | ≤ 6.00 |

Continued, compound first:

| SMILES | inhibition at 0.1 µM (EGFR (ErbB1)) | inhibition at 0.1 µM (EGFR (ErbB1) T790M L858R) | inhibition at 0.1 µM (BRAF) | inhibition at 0.1 µM (PDGFRA (PDGFR alpha)) | inhibition at 0.1 µM (KDR (VEGFR2)) | inhibition at 0.1 µM (SRC) | inhibition at 0.1 µM (FGFR2) | pEC50 (HuH6 Clone 5 cell line) | pEC50 (HuH7 cell line; 100 nM < EC50 < 1 μM) | pEC50 (HepG2 cell line) | pEC50 (HT29 cell line) | pEC50 (A549 cell line) | pEC50 (H1975 cell line; 100 nM < EC50 < 1 μM) | pEC50 (HuH7 cell line; EC50 ≧ 1 μM) | pEC50 (H1975 cell line; EC50 ≧ 1 μM) | pEC50 (MDA-MB-231 cell line) | pEC50 (HuCCT1 cell line; EC50 ≧ 1 μM) | pEC50 (HUVEC cells; 100 nM < EC50 < 1 μM) | pEC50 (HuCCT1 cell line; 100 nM < EC50 < 1 μM) | pEC50 (HUVEC cells; EC50 ≧ 1 μM) |
| --- | --- | --- | --- | --- | --- | --- | --- | --- | --- | --- | --- | --- | --- | --- | --- | --- | --- | --- | --- | --- |
| COC(=O)c1cc2cc(CCc3cc(NC(=O)c4ccc(CN5CCC(N(C)C)C5)c(C(F)(F)F)c4)ccc3C)cnc2[nH]1 (stereo not drawn) [OR0775, 5-(2-{5-[4-(3-Dimethylamino-pyrrolidin-1-ylmethyl)-3-trifluoromethyl-benzoylamino]-2-methyl-phenyl}-ethyl)-1H-pyrrolo[2,3-b]pyridine-2-carboxylic acid methyl ester] | ≥ 50% | ≥ 50% | ≥ 50% | ≥ 50% | ≥ 50% | ≥ 50% | ≥ 50% | ≤ 6.00 | 6.00 to 7.00 | ≤ 6.00 |  |  |  |  |  |  | ≤ 6.00 | 6.00 to 7.00 |  |  |
| COC(=O)c1cc2cc(COc3cc(NC(=O)c4ccc(CN5CCC(N(C)C)C5)c(C(F)(F)F)c4)ccc3C)cnc2[nH]1 (stereo not drawn) [OR0750, 5-{5-[4-(3-Dimethylamino-pyrrolidin-1-ylmethyl)-3-trifluoromethyl-benzoylamino]-2-methyl-phenoxymethyl}-1H-pyrrolo[2,3-b]pyridine-2-carboxylic acid methyl ester] | ≥ 50% | < 50% | < 50% | ≥ 50% | ≥ 50% | ≥ 50% | ≥ 50% |  |  | ≤ 6.00 | ≤ 6.00 | ≤ 6.00 | 6.00 to 7.00 |  |  |  | ≤ 6.00 | 6.00 to 7.00 |  |  |
| COC(=O)c1cc2cc(CNC(=O)c3cc(NC(=O)c4ccc(CN5CCC(N(C)C)C5)c(C(F)(F)F)c4)ccc3C)cnc2[nH]1 (stereo not drawn) [OR0726, 5-({5-[4-(3-Dimethylamino-pyrrolidin-1-ylmethyl)-3-trifluoromethyl-benzoylamino]-2-methyl-benzoylamino}-methyl)-1H-pyrrolo[2,3-b]pyridine-2-carboxylic acid methyl ester] | < 50% | < 50% | < 50% | < 50% | < 50% | < 50% | < 50% |  |  |  |  |  |  |  |  |  |  |  |  |  |
| COC(=O)c1cc2cc(CNc3cc(NC(=O)c4ccc(C)cc4)ccc3C)cnc2[nH]1 [OR0738, 5-{[2-Methyl-5-(4-methyl-benzoylamino)-phenylamino]-methyl}-1H-pyrrolo[2,3-b]pyridine-2-carboxylic acid methyl ester] | < 50% | < 50% | < 50% | < 50% | < 50% | < 50% | < 50% |  |  | ≤ 6.00 | ≤ 6.00 | ≤ 6.00 |  |  | ≤ 6.00 |  | ≤ 6.00 |  |  | ≤ 6.00 |
| COC(=O)c1cc2cc(CNC(=O)c3cc(NC(=O)c4ccc(CN5CCN(C)CC5)cc4)ccc3C)cnc2[nH]1 [OR0730, 5-({2-Methyl-5-[4-(4-methyl-piperazin-1-ylmethyl)-benzoylamino]-benzoylamino}-methyl)-1H-pyrrolo[2,3-b]pyridine-2-carboxylic acid methyl ester] | < 50% | < 50% | < 50% | < 50% | < 50% | < 50% | < 50% |  |  |  |  |  |  |  |  |  |  |  |  |  |
| COC(=O)c1cc2cc(CNC(=O)c3cc(NC(=O)c4ccc(CN5CCN(C)CC5)c(C(F)(F)F)c4)ccc3C)cnc2[nH]1 [OR0728, 5-({2-Methyl-5-[4-(4-methyl-piperazin-1-ylmethyl)-3-trifluoromethyl-benzoylamino]-benzoylamino}-methyl)-1H-pyrrolo[2,3-b]pyridine-2-carboxylic acid methyl ester] | < 50% | < 50% | < 50% | ≥ 50% | < 50% | < 50% | < 50% |  |  |  |  |  |  |  |  |  |  |  |  |  |
| C#Cc1cccc(Nc2ncnc3cc(OCCOC)c(OCCOC)cc23)c1 [Erlotinib, reference compound] |  |  |  |  |  |  |  |  |  |  | ≤ 6.00 | ≤ 6.00 |  |  |  |  |  |  |  | ≤ 6.00 |
| CC(=O)c1cc2cc(C(=O)Nc3cc(NC(=O)c4ccc(CN5CCN(C)CC5)c(C(F)(F)F)c4)ccc3C)cnc2[nH]1 [OR0724, 2-Acetyl-1H-pyrrolo[2,3-b]pyridine-5-carboxylic acid {2-methyl-5-[4-(4-methyl-piperazin-1-ylmethyl)-3-trifluoromethyl-benzoylamino]-phenyl}-amide] | ≥ 50% | ≥ 50% | < 50% | < 50% | < 50% | < 50% | < 50% |  |  |  |  |  |  |  |  |  |  |  |  |  |
